Values after ≈ are worked out from the molar mass of the structure shown. Read-outs that look alike come from different tables or passages of the source.
Columns and labels:
Assay type in all cases: cell-based
A. baumannii strains = test: MIC against A. baumannii strains (Table M8); conditions: for MIC: Acinetobacter baumannii, BAA747, A. baumannii BAA747-1
E. faecalis strains = test: MIC against E. faecalis strains (Table M8); conditions: for MIC: Enterococcus faecalis, E. faecalis 29212
E. coli strains = test: MIC against E. coli strains (Table M7); conditions: for MIC: Escherichia coli, ATCC25922, E. coli ATCC 25922
Source text: (§1) We have collected MIC data for a total of 50 novel macrolides that this platform has produced against over 21 unique strains of B. subtilis, E. coli, S. aureus, S. pneumoniae, and H. influenzae, including several multidrug-resistant strains, with a special focus on macrolide resistant mechanisms (vide supra). Azithromycin was included as a control macrolide. CLSI standard procedures for broth dilution MIC determination were used. […] These genotypes can be constitutive or inducible. The finding that C4-epi (unnatural) isomers of the “azaketolide” macrolide class have enhanced activities relative to C4 natural isomers is very exciting.

H. influenzae strains = test: MIC against H. influenzae strains (Table M8); conditions: for MIC: Haemophilus influenzae
Source text: as §1

K. pneumoniae strains = test: MIC against K. pneumoniae strains (Table M8); conditions: for MIC: Klebsiella pneumoniae, K. pneumoniae 10031
S. aureus strains = test: MIC against S. aureus strains (Table M7); conditions: for MIC: Staphylococcus aureus
Source text: as §1

S. pneumoniae strains = test: MIC against S. pneumoniae strains (Tables M7, M8); conditions: for MIC: Streptococcus pneumoniae
Source text: CLSI standard procedures for broth dilution MIC determination were used. […] These genotypes can be constitutive or inducible.

[1] = H. influenzae 49247, read-out: MIC H. influenzae (49247)
[2] = H. influenzae 49766, read-out: MIC H. influenzae (49766)
[3] = ATCC29213, S. aureus ATCC 29213, read-out: MIC S. aureus (ATCC 29213)
[4] = S. aureus 183, read-out: MIC S. aureus (183)
[5] = S. aureus 506, read-out: MIC S. aureus (506)
[6] = S. aureus 1708, read-out: MIC S. aureus (1708)
[7] = USA300, S. aureus USA300, read-out: MIC S. aureus (USA300)
[8] = S. pneumoniae 160, read-out: MIC S. pneumonae (160)
[9] = S. pneumoniae 1509, read-out: MIC S. pneumoniae (1509)
[10] = S. pneumoniae 1533, read-out: MIC S. pneumoniae (1533)
[11] = S. pneumoniae 1537, read-out: MIC S. pneumoniae (1537)
[12] = S. pneumoniae 49619, read-out: MIC S. pneumoniae (49619)

Row | SMILES | MIC (A. baumannii strains) [µg/mL] | MIC (E. faecalis strains) [µg/mL] | MIC (E. coli strains) [µg/mL] | MIC (H. influenzae strains; [1]) [µg/mL] | MIC (H. influenzae strains; [2]) [µg/mL] | MIC (K. pneumoniae strains) [µg/mL] | MIC (S. aureus strains; [3]) [µg/mL] | MIC (S. aureus strains; [4]) [µg/mL] | MIC (S. aureus strains; [5]) [µg/mL] | MIC (S. aureus strains; [6]) [µg/mL] | MIC (S. aureus strains; [7]) [µg/mL] | MIC (S. pneumoniae strains; [8]) [µg/mL] | MIC (S. pneumoniae strains; [9]) [µg/mL] | MIC (S. pneumoniae strains; [10]) [µg/mL] | MIC (S. pneumoniae strains; [11]) [µg/mL] | MIC (S. pneumoniae strains; [12]) [µg/mL] | also measured
1 | CC[C@H]1OC(=O)[C@H](C)C(=O)[C@H](C)[C@@H](O[C@@H]2OC(C)CC(N(C)C)C2O)[C@](C)(OC)C[C@@H](C)CCN[C@H](C)[C@H]2N(CCCCn3cc(-c4cccc(N)c4)nn3)C(=O)O[C@]12C (stereo partly drawn) [FSM-21397] | 16 (≈ 19 µM) | 0.5 (≈ 0.594 µM) | 16 (≈ 19 µM) | 2 (≈ 2.38 µM) | 4 (≈ 4.75 µM) | 4 (≈ 4.75 µM) | 2 (≈ 2.38 µM) | > 32 | > 32 | 2 (≈ 2.38 µM) | 2 (≈ 2.38 µM) | 0.25 (≈ 0.297 µM) | 4 (≈ 4.75 µM) | > 32 | > 32 | 0.125 (≈ 0.148 µM) | 
2 | CC[C@H]1OC(=O)[C@H](CC#N)C(=O)[C@H](C)[C@@H](O[C@@H]2OC(C)CC(N(C)C)C2O)[C@](C)(OC)C[C@@H](C)CN[C@H](C)[C@H]2N(CCCCn3cc(-c4cccc(N)c4)nn3)C(=O)O[C@]12C (stereo partly drawn) [FSM-56160] | > 32 | 8 (≈ 9.38 µM) | > 32 | 8 (≈ 9.38 µM) | 32 (≈ 37.5 µM) | 8 (≈ 9.38 µM) | > 32 | > 32 | > 32 | > 32 | > 32 | 2 (≈ 2.34 µM) | > 32 | > 32 | > 32 | 16 (≈ 18.8 µM) | 
3 | CC[C@H]1OC(=O)[C@H](CC(=O)O)C(=O)[C@H](C)[C@@H](O[C@@H]2OC(C)CC(N(C)C)C2O)[C@](C)(OC)C[C@@H](C)CN[C@H](C)[C@H]2N(CCCCn3cc(-c4cccc(N)c4)nn3)C(=O)O[C@]12C (stereo partly drawn) [FSM-56185] | > 32 | > 32 | > 32 | > 32 | > 32 | > 32 | > 32 | > 32 | > 32 | > 32 | > 32 | > 32 | > 32 | > 32 | > 32 | > 32 | 
4 | C=CC[C@@]1(OC)C[C@@H](C)CN[C@H](C)[C@H]2N(CCCCn3cc(-c4cccc(N)c4)nn3)C(=O)O[C@]2(C)[C@@H](CC)OC(=O)[C@H](C)C(=O)[C@@H](C)[C@H]1O[C@@H]1OC(C)CC(N(C)C)C1O (stereo in doubt) [FSM-21368] |  |  |  |  |  |  |  |  |  |  |  |  |  |  |  |  | MIC A. baumannii (BAA747-1) (A. baumannii strains): 16 µg/mL (≈ 18.7 µM); MIC E. faecalis (29212) (E. faecalis strains): 2 µg/mL (≈ 2.34 µM); MIC E. coli (ATCC 25922) (E. coli strains): 8 µg/mL (≈ 9.37 µM); MIC H. influenzae (49247) (H. influenzae strains; H. influenzae 49247): 2 µg/mL (≈ 2.34 µM); MIC H. influenzae (49766) (H. influenzae strains; H. influenzae 49766): 8 µg/mL (≈ 9.37 µM); MIC K. pneumoniae (10031) (K. pneumoniae strains): 4 µg/mL (≈ 4.68 µM); MIC S. aureus (183) (S. aureus strains; S. aureus 183): >32 µg/mL; MIC S. aureus (506) (S. aureus strains; S. aureus 506): >32 µg/mL; MIC S. aureus (1708) (S. aureus strains; S. aureus 1708): 16 µg/mL (≈ 18.7 µM); MIC S. aureus (ATCC 29213) (S. aureus strains): 8 µg/mL (≈ 9.37 µM); MIC S. aureus (USA300) (S. aureus strains): 8 µg/mL (≈ 9.37 µM); MIC S. pneumonae (160) (S. pneumoniae strains; S. pneumoniae 160): 0.25 µg/mL (≈ 0.293 µM); MIC S. pneumoniae (1509) (S. pneumoniae strains; S. pneumoniae 1509): 8 µg/mL (≈ 9.37 µM); MIC S. pneumoniae (1533) (S. pneumoniae strains; S. pneumoniae 1533): >32 µg/mL; MIC S. pneumoniae (1537) (S. pneumoniae strains; S. pneumoniae 1537): >32 µg/mL; MIC S. pneumoniae (49619) (S. pneumoniae strains; S. pneumoniae 49619): 1 µg/mL (≈ 1.17 µM)
5 | CC[C@H]1OC(=O)[C@H](C)C(=O)[C@H](C)[C@@H](O[C@@H]2OC(C)CC(N(C)C)C2O)[C@](C)(OC)CC(C)(F)CN[C@H](C)[C@H]2N(CCCCn3cc(-c4cccc(N)c4)nn3)C(=O)O[C@]12C (stereo partly drawn) [FSM-30686] | > 32 | 0.5 (≈ 0.591 µM) | 32 (≈ 37.8 µM) | 2 (≈ 2.36 µM) | 8 (≈ 9.46 µM) | 8 (≈ 9.46 µM) | 8 (≈ 9.46 µM) | > 32 | > 32 | 4 (≈ 4.73 µM) | 8 (≈ 9.46 µM) | 0.5 (≈ 0.591 µM) | 4 (≈ 4.73 µM) | > 32 | > 32 | 0.25 (≈ 0.295 µM) | 
6 | CC[C@H]1OC(=O)[C@H](C)C(=O)[C@H](C)[C@@H](O[C@@H]2OC(C)CC(N(C)C)C2O)[C@](C)(OC)CC(C)N[C@H](C)[C@H]2N(CCCCn3cc(-c4cccc(N)c4)nn3)C(=O)O[C@]12C (stereo partly drawn) [FSM-30690] |  |  |  |  |  |  |  |  |  |  |  |  |  |  |  |  | MIC A. baumannii (BAA747-1) (A. baumannii strains): >32 µg/mL; MIC E. faecalis (29212) (E. faecalis strains): >32 µg/mL; MIC E. coli (ATCC 25922) (E. coli strains): >32 µg/mL; MIC H. influenzae (49247) (H. influenzae strains; H. influenzae 49247): >32 µg/mL; MIC H. influenzae (49766) (H. influenzae strains; H. influenzae 49766): >32 µg/mL; MIC K. pneumoniae (10031) (K. pneumoniae strains): >32 µg/mL; MIC S. aureus (183) (S. aureus strains; S. aureus 183): >32 µg/mL; MIC S. aureus (506) (S. aureus strains; S. aureus 506): >32 µg/mL; MIC S. aureus (1708) (S. aureus strains; S. aureus 1708): >32 µg/mL; MIC S. aureus (ATCC 29213) (S. aureus strains): >32 µg/mL; MIC S. aureus (USA300) (S. aureus strains): >32 µg/mL; MIC S. pneumonae (160) (S. pneumoniae strains; S. pneumoniae 160): >32 µg/mL; MIC S. pneumoniae (1509) (S. pneumoniae strains; S. pneumoniae 1509): >32 µg/mL; MIC S. pneumoniae (1533) (S. pneumoniae strains; S. pneumoniae 1533): >32 µg/mL; MIC S. pneumoniae (1537) (S. pneumoniae strains; S. pneumoniae 1537): >32 µg/mL; MIC S. pneumoniae (49619) (S. pneumoniae strains; S. pneumoniae 49619): >32 µg/mL
7 | CC[C@H]1OC(=O)[C@H](Cc2cn[nH]c2)C(=O)[C@H](C)[C@@H](O[C@@H]2OC(C)CC(N(C)C)C2O)[C@](C)(OC)C[C@@H](C)CN[C@H](C)[C@H]2N(CCCCn3cc(-c4cccc(N)c4)nn3)C(=O)O[C@]12C (stereo partly drawn) [FSM-56192] | > 32 | 32 (≈ 35.8 µM) | > 32 | 8 (≈ 8.95 µM) | 32 (≈ 35.8 µM) | 16 (≈ 17.9 µM) | > 32 | > 32 | > 32 | > 32 | > 32 | 8 (≈ 8.95 µM) | > 32 | > 32 | > 32 | 2 (≈ 2.24 µM) | 
8 | CC[C@H]1OC(=O)[C@H](CC(=O)OC(C)(C)C)C(=O)[C@H](C)[C@@H](O[C@@H]2OC(C)CC(N(C)C)C2O)[C@](C)(OC)C[C@@H](C)CN[C@H](C)[C@H]2N(CCCCn3cc(-c4cccc(N)c4)nn3)C(=O)O[C@]12C (stereo partly drawn) [FSM-56178] | > 32 | > 32 | > 32 | > 32 | > 32 | > 32 | > 32 | > 32 | > 32 | > 32 | > 32 | 8 (≈ 8.62 µM) | > 32 | > 32 | > 32 | > 32 | 
9 | CC[C@H]1OC(=O)[C@H](C)C(=O)[C@H](C)[C@@H](O[C@@H]2OC(C)CC(N(C)C)C2O)[C@](C)(OC)C[C@@H](C)CN[C@H](Cc2cccc(Br)c2)[C@H]2N(CCCCn3cc(-c4cccc(N)c4)nn3)C(=O)O[C@]12C (stereo partly drawn) [FSM-60415] | > 32 | 2 (≈ 2.03 µM) | > 32 | 8 (≈ 8.14 µM) | 32 (≈ 32.6 µM) | > 32 | 2 (≈ 2.03 µM) | > 32 | > 32 | 2 (≈ 2.03 µM) | 2 (≈ 2.03 µM) | 0.5 (≈ 0.509 µM) | 4 (≈ 4.07 µM) | 32 (≈ 32.6 µM) | 32 (≈ 32.6 µM) | 0.5 (≈ 0.509 µM) | 

Source: patent US9982005B2, “Macrolides and methods of their preparation and use” (President and Fellows of Harvard College, priority 2013, dated 2018)
